Assay results from patent US11160282B2, “Use of a composition and method for reducing bacterial spores in pulp suspension” (Kemira Oyj, priority 2016, dated 2021).

Experiments:
Assay type in all cases: cell-based
aerobic spores [1] = assay: Example 4 (reference): laboratory test, broke sample, aerobic spore count; settings: broke 1.0% consistency, pH 7.8, ORP +146 mV; 10 ppm active chlorine, 1 day contact time; untreated 70 cfu/ml
Procedure: (§1) This laboratory test was performed in order to test killing effect of sodium hypochlorite against total aerobes and aerobic spores in broke sample (consistency 1.0%, pH 7.8, ORP +146 mV) taken from an alkaline board machine, which produces 3-ply food packaging board. Total aerobes and aerobic spore counts were quantitated by using plate count agar (+45° C./+37° C., 2 days incubation). Prior to the bacterial spore determination, samples were pasteurized at +80° C. for 20 min.

total aerobes = assay: Example 4 (reference): laboratory test, broke sample, total aerobes count; settings: broke 1.0% consistency, pH 7.8, ORP +146 mV; 10 ppm active chlorine, 1 day contact time; untreated 650 000 cfu/ml
Procedure: as §1

aerobic spores [2] = assay: Example 5: pilot paper machine test, aerobic spores in dry paper (ISO 8784-1); settings: glutaraldehyde alone, 50 ppm as active agent, 5 min post-treatment of pulp suspension (reference paper)
Procedure: This test was performed in a pilot paper machine producing 1-ply paper. Aim of the test was to verify efficacy of the invention to provide a low quantity of aerobic bacteria and aerobic bacterial spores in dry paper end-product. Composition 1-5 comprising 40 weight-% of dodecylamine, 40 weight-% of dipropylene glycol and 20 weight-% of water was used according to the invention. It was dosed as 100, 150 or 300 mg/l into pulp suspension with 2.25% consistency. The pulp suspension was then mixed 120 rpm for 30 min at +40° C. The pulp suspension was made from a batch of authentic, spore-contaminated folding-box board with average spore content of 7000 cfu/gram of dry board. All pulp suspensions in the pilot paper machine were also post-treated (5 min, 120 rpm) with glutaraldehyde (dose: 50 ppm as active agent) in order to maintain control of vegetative bacterial cells in the pilot machine. Total aerobic bacteria (without pasteurization) and aerobic spores (with pasteurization step at +82° C. for 10 min) were quantified from the dry paper end product according to the ISO 8784-1 standard for microbiological examination of paper and board.

Row | SMILES | aerobic spores (aerobic spores [1]) [cfu/ml] | total aerobes (total aerobes) | effect on spore contamination in the produced paper (aerobic spores [2])
1 | OCl [Sodium hypochlorite, sodium hypochlorite] | 60 | 390 000 cfu/ml | 
2 | O=CCCCC=O [glutaraldehyde] |  |  | not alone capable to lower spore contamination
